# From PubChem BioAssay (NCI)
#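 Assay format: 96-well plates, 48-hour exposure. GI50 is the concentration that inhibits growth by half. Definition used: TGI = concentration required for complete inhibition of growth.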
# Legend:
# Assay in all cases: growth of human tumour cells (NCI), 48 h
# [1] = system: 786-0 renal
# [2] = system: A498 renal
# [3] = system: A549 NSCLC
# [4] = system: ACHN renal
# [5] = system: BT-549 breast
# [6] = system: CAKI-1 renal
# [7] = system: CCRF-CEM leukemia
# [8] = system: COLO 205 colon
# [9] = system: DU-145 prostate
# [10] = system: EKVX NSCLC
# [11] = system: HCC-2998 colon
# [12] = system: HCT-116 colon
# [13] = system: HCT-15 colon
# [14] = system: HL-60(TB) leukemia
# [15] = system: HOP-62 NSCLC
# [16] = system: HOP-92 NSCLC
# [17] = system: HS 578T breast
# [18] = system: HT29 colon
# [19] = system: IGROV1 ovarian
# [20] = system: K-562 leukemia
# [21] = system: KM12 colon
# [22] = system: LOX IMVI melanoma
# [23] = system: M14 melanoma
# [24] = system: MCF7 breast
# [25] = system: MDA-MB-231 breast
# [26] = system: MDA-MB-435
# [27] = system: MDA-N
# [28] = system: MOLT-4 leukemia
# [29] = system: NCI-H226 lung
# [30] = system: NCI-H23 lung
# [31] = system: NCI-H460 lung
# [32] = system: NCI-H522 lung
# [33] = system: NCI/ADR-RES ovarian
# [34] = system: OVCAR-3 ovarian
# [35] = system: OVCAR-4 ovarian
# [36] = system: OVCAR-5 ovarian
# [37] = system: OVCAR-8 ovarian
# [38] = system: PC-3 prostate
# [39] = system: RPMI-8226 leukemia
# [40] = system: RXF 393 renal
# [41] = system: SF-268 CNS
# [42] = system: SF-295 CNS
# [43] = system: SF-539 CNS
# [44] = system: SK-MEL-2 melanoma
# [45] = system: SK-MEL-28 melanoma
# [46] = system: SK-MEL-5 melanoma
# [47] = system: SK-OV-3 ovarian
# [48] = system: SN12C renal
# [49] = system: SNB-19 CNS
# [50] = system: SNB-75 CNS
# [51] = system: SR leukemia
# [52] = system: SW-620 colon
# [53] = system: T-47D breast
# [54] = system: TK-10 renal
# [55] = system: U251 CNS
# [56] = system: UACC-257 melanoma
# [57] = system: UACC-62 melanoma
# [58] = system: UO-31 renal
structure (smiles),measurement,setting,value
CC1CC[P+](c2ccccc2)(c2ccccc2)c2c1ccc1ccccc21 (stereo not given),GI50,[1],11 µM
same,TGI,[1],43.4 µM
same,GI50,[2],35.1 µM
same,TGI,[2],88.2 µM
same,TGI,[3],> 100 µM
same,TGI,[4],> 81.5 µM
same,TGI,[5],6.68 µM
same,TGI,[6],32.6 µM
same,TGI,[7],42.1 µM
same,GI50,[8],2.02 µM
same,GI50,[9],13.3 µM
same,TGI,[9],> 100 µM
same,GI50,[10],92 µM
same,TGI,[10],> 100 µM
same,TGI,[11],41.9 µM
same,TGI,[12],> 39.5 µM
same,TGI,[13],> 100 µM
same,TGI,[14],21.4 µM
same,GI50,[15],11.5 µM
same,TGI,[15],> 57.5 µM
same,TGI,[16],5.43 µM
same,TGI,[17],7.66 µM
same,TGI,[18],13.9 µM
same,GI50,[19],4.42 µM
same,TGI,[19],21.2 µM
same,TGI,[20],17.8 µM
same,TGI,[21],14.8 µM
same,TGI,[22],7.61 µM
same,TGI,[23],41.9 µM
same,TGI,[24],> 100 µM
same,GI50,[25],8.98 µM
same,TGI,[25],> 45 µM
same,TGI,[26],16.4 µM
same,GI50,[27],2.98 µM
same,TGI,[27],> 28.3 µM
same,TGI,[28],37.6 µM
same,GI50,[29],8.48 µM
same,TGI,[29],62.8 µM
same,TGI,[30],9.78 µM
same,TGI,[31],10.1 µM
same,TGI,[32],9.87 µM
same,TGI,[33],> 100 µM
same,GI50,[34],3.09 µM
same,TGI,[34],> 58.8 µM
same,TGI,[35],> 100 µM
same,TGI,[36],> 100 µM
same,TGI,[37],21.1 µM
same,TGI,[38],7.34 µM
same,GI50,[39],1.63 µM
same,TGI,[39],11.6 µM
same,TGI,[40],43.5 µM
same,TGI,[41],> 100 µM
same,TGI,[42],20.3 µM
same,TGI,[43],35.8 µM
same,TGI,[44],7.13 µM
same,GI50,[45],13 µM
same,TGI,[45],> 73.4 µM
same,TGI,[46],5.16 µM
same,GI50,[47],2.73 µM
same,TGI,[47],16.4 µM
same,TGI,[48],37.1 µM
same,TGI,[49],97.4 µM
same,TGI,[50],6.05 µM
same,GI50,[51],9.65 µM
same,TGI,[51],> 100 µM
same,GI50,[52],5.95 µM
same,TGI,[52],> 100 µM
same,TGI,[53],> 71.6 µM
same,GI50,[54],11.4 µM
same,TGI,[54],> 100 µM
same,GI50,[55],2.85 µM
same,TGI,[55],> 100 µM
same,TGI,[56],13.9 µM
same,TGI,[57],20.1 µM
same,TGI,[58],> 68.3 µM
